Measurements taken from PMC13510729, “Multiheme selenoenzyme essential for elemental sulfur respiration” (Science Advances, 2026).

Tested on: T1, MccSep
T1 construct: selenoprotein read through an in-frame UGA (Sec325) joining gsu2937 and gsu2936, databases may hold it as two ORFs; C-terminal Factor Xa site and Strep-tag; expressed in G. sulfurreducens PCA delta-mccsep; five heme c per subunit; about 49 kDa; homotetramer of 200 kDa
Experiment: spectrophotometric oxidation of reduced methyl viologen at […] nm, allosteric sigmoidal fit
Assay type: biochemical, Geobacter sulfurreducens
Details: reduced methyl viologen (0.3 mM) with 0.075 mM dithionite, 2 mM CaCl2, 50 mM Bicine-NaOH pH 8.5, 30 °C, anaerobic; Hill coefficient 1.5 ± 0.1; read-out: apparent K0.5

## O=[Se](O)O [selenite]
  Km: 990 ± 40 µM
